27 molecules from patent publication US8697739B2, “Bicyclic acetyl-CoA carboxylase inhibitors and uses thereof” (Novartis AG, priority 2010, dated 2014) can be followed below.

Bounds are passed on as bounds.

In the test the target is T1, human acetyl-CoA carboxylase 2 (ACC2) (Homo sapiens, UniProt O00763).
T1 construct: The cDNA encoding amino acids 144 to 2458 of human acetyl-CoA carboxylase 2; made in house; host or cells: Sf9 insect cells (baculovirus, pFastBac1)
T1 sequence (O00763 144-2458): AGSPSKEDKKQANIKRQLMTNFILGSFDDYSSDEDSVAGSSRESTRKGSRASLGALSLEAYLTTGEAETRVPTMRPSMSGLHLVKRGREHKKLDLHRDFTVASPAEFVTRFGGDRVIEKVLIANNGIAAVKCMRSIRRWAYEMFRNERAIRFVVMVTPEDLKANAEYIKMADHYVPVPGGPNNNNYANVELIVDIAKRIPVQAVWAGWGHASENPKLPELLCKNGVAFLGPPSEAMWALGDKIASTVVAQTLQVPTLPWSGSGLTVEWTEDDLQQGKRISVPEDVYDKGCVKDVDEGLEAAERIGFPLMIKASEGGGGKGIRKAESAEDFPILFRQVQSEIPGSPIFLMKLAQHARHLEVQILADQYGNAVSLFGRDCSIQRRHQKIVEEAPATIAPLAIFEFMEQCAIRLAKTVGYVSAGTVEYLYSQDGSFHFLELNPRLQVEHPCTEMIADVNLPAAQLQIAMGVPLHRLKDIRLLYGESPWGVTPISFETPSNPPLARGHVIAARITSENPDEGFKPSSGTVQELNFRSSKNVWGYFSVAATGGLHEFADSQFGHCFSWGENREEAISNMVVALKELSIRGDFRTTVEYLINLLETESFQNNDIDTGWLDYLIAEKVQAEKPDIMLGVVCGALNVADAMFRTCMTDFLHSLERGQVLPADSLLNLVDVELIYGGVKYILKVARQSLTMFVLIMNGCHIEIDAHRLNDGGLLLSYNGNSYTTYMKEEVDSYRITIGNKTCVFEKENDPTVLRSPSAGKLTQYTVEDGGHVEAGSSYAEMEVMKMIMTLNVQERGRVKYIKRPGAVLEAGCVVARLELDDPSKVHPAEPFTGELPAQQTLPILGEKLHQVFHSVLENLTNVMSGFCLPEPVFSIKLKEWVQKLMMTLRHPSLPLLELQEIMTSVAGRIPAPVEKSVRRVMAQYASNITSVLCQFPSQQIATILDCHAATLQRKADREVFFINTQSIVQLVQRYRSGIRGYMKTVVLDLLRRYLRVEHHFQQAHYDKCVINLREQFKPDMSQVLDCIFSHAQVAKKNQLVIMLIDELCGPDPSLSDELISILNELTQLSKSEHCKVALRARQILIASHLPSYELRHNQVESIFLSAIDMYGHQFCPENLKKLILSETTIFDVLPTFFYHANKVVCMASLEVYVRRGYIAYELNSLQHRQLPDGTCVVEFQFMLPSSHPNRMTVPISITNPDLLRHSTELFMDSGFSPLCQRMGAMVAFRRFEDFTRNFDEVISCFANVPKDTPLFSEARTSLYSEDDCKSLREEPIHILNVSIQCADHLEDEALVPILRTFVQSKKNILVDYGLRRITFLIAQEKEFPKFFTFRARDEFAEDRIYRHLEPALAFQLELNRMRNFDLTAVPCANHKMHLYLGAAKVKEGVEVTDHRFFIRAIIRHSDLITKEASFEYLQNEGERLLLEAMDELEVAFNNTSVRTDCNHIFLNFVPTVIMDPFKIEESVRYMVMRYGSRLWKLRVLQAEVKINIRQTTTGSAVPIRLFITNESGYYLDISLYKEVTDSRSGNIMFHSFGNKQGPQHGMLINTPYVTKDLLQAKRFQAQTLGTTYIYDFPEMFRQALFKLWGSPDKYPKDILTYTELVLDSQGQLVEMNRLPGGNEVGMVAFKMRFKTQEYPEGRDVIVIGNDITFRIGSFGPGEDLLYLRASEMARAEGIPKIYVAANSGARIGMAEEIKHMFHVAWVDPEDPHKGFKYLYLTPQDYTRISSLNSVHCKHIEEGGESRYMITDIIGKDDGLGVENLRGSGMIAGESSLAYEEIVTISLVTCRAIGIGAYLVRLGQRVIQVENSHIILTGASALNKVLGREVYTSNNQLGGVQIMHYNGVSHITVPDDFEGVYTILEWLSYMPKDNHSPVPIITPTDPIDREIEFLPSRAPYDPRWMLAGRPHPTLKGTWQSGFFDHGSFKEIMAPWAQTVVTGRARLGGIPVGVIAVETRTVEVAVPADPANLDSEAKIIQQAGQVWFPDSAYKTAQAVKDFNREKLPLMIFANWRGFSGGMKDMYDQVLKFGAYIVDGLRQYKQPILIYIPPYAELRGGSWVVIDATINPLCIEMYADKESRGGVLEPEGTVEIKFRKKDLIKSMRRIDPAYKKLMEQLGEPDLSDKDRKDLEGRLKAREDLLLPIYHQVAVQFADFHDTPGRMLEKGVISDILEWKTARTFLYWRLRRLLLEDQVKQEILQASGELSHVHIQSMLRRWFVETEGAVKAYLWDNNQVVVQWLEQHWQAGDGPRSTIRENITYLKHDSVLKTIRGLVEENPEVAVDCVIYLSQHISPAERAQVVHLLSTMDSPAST
Put plainly: Acetyl-CoA carboxylase enzyme assay (malonyl-CoA formation by LC/MS/MS). The format is biochemical. The settings on record: recombinant human ACC2 (aa 144-2458); read-out: IC50 ACC2. Summed up:
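Malonyl-CoA formation was read by LC/MS/MS MRM against a [13C3]-malonyl-CoA internal standard, after acetic acid quench. The enzyme was baculovirus/Sf9-expressed human ACC2 residues 144–2458, given 15 minutes room-temperature compound preincubation in HEPES pH 7.5 buffer with MgCl2, citrate and DTT. Substrate solution held 50 μM acetyl-CoA, 120 μM ATP and 2 mM KHCO3.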
Regarding `Cc1ccccc1-c1cc2ccc(S(=O)(=O)N[C@H]3CC[C@H](C(=O)N4CCCC4c4ccccc4)CC3)cc2[nH]1` (stereo partly drawn) [Example 335, N-((1r,4r)-4-(2-phenylpyrrolidine-1-carbonyl)cyclohexyl)-2-o-tolyl-1H-indole-6-sulfonamide], the IC50 came out at 25 nM.

Turning to `Cn1c(-c2ccc(CO)cc2)cc2ccc(S(=O)(=O)N[C@H]3CC[C@H](C(=O)N4CCOCC4)CC3)cc21` [Example 336, 2-(4-(hydroxymethyl)phenyl)-1-methyl-N-((1r,4r)-4-(morpholine-4-carbonyl)cyclohexyl)-1H-indole-6-sulfonamide], the half-maximal inhibitory concentration (IC50) is 35 nM.

As to `Cn1c(-c2ccc(CO)cc2)cc2ccc(S(=O)(=O)N[C@H]3CC[C@H](C(=O)N4CCN[C@H](C(F)(F)F)C4)CC3)cc21` [Example 337, 2-(4-(hydroxymethyl)phenyl)-1-methyl-N-((1S,4r)-4-((S)-3-(trifluoromethyl)piperazine-1-carbonyl)cyclohexyl)-1H-indole-6-sulfonamide], the concentration for half-maximal inhibition (IC50) amounted to 20 nM.

With `Cn1c(-c2ccc(CO)cc2)cc2ccc(S(=O)(=O)N[C@H]3CC[C@H](C(=O)N4CCN[C@@H](C(F)(F)F)C4)CC3)cc21` [Example 338, 2-(4-(hydroxymethyl)phenyl)-1-methyl-N-((1R,4r)-4-((R)-3-(trifluoromethyl)piperazine-1-carbonyl)cyclohexyl)-1H-indole-6-sulfonamide], the IC50 was determined as 15 nM.

Take `COCc1ccc(-c2cc3ccc(S(=O)(=O)N[C@H]4CC[C@H](C(=O)N5CCNC(C(F)(F)F)C5)CC4)cc3n2C)cc1` (stereo partly drawn) [Example 339, 2-(4-(methoxymethyl)phenyl)-1-methyl-N-((1r,4r)-4-(3-(trifluoromethyl)piperazine-1-carbonyl)cyclohexyl)-1H-indole-6-sulfonamide]: the IC50 amounted to 30 nM.

Regarding `CCOC(=O)C1CCCCN1C(=O)[C@H]1CC[C@H](NS(=O)(=O)c2ccc3cc(-c4ccc(COC)cc4)[nH]c3c2)CC1` (stereo partly drawn) [Example 340, ethyl 1-((1r,4r)-4-(2-(4-(methoxymethyl)phenyl)-1H-indole-6-sulfonamido)cyclohexanecarbonyl)piperidine-2-carboxylate], the IC50 is 255 nM.

As to `CCOC(=O)C1CCCCN1C(=O)[C@H]1CC[C@H](NS(=O)(=O)c2ccc3cc(-c4ccc(COC)cc4)n(C)c3c2)CC1` (stereo partly drawn) [Example 341, ethyl 1-((1r,4r)-4-(2-(4-(methoxymethyl)phenyl)-1-methyl-1H-indole-6-sulfonamido)cyclohexanecarbonyl)piperidine-2-carboxylate], the IC50 came out at 240 nM.

Regarding `Cc1ccccc1-c1cc2ccc(S(=O)(=O)N[C@H]3CC[C@H](C(=O)N4CCN[C@H](C(F)(F)F)C4)CC3)cc2[nH]1` [Example 342, 2-o-tolyl-N-((1S,4r)-4-((S)-3-(trifluoromethyl)piperazine-1-carbonyl)cyclohexyl)-1H-indole-6-sulfonamide], the half-inhibitory concentration (IC50) turned out to be 135 nM.

Take `Cc1ccccc1-c1cc2ccc(S(=O)(=O)N[C@H]3CC[C@H](C(=O)N4CCN[C@@H](C(F)(F)F)C4)CC3)cc2[nH]1` [Example 343, 2-o-tolyl-N-((1R,4r)-4-((R)-3-(trifluoromethyl)piperazine-1-carbonyl)cyclohexyl)-1H-indole-6-sulfonamide]: the IC50 is 170 nM.

Regarding `Cn1c(-c2ccc(F)cc2)cc2ccc(S(=O)(=O)N[C@H]3CC[C@H](C(=O)N4CCNC(C(F)(F)F)C4)CC3)cc21` (stereo partly drawn) [Example 344, 2-(4-fluorophenyl)-1-methyl-N-((1r,4r)-4-(3-(trifluoromethyl)piperazine-1-carbonyl)cyclohexyl)-1H-indole-6-sulfonamide], the IC50 came out at 60 nM.

As to `CCOC(=O)C1CCCN(C(=O)[C@H]2CC[C@H](NS(=O)(=O)c3ccc4cc(-c5ccc(F)cc5)n(C)c4c3)CC2)C1` (stereo partly drawn) [Example 345, ethyl 1-((1r,4r)-4-(2-(4-fluorophenyl)-1-methyl-1H-indole-6-sulfonamido)cyclohexanecarbonyl)piperidine-3-carboxylate], the IC50 was 255 nM.

Consider `Cn1c(-c2ccc(F)cc2)cc2ccc(S(=O)(=O)N[C@H]3CC[C@H](C(=O)N4CCCC(C(=O)O)C4)CC3)cc21` (stereo partly drawn) [Example 346, 1-((1r,4r)-4-(2-(4-fluorophenyl)-1-methyl-1H-indole-6-sulfonamido)cyclohexanecarbonyl)piperidine-3-carboxylic acid], for which the IC50 came to 265 nM.

Turning to `Cn1c(-c2ccc(CO)cc2)cc2ccc(S(=O)(=O)N[C@H]3CC[C@H](C(=O)N4CCNC(=O)C4)CC3)cc21` [Example 347, 2-(4-(hydroxymethyl)phenyl)-1-methyl-N-((1r,4r)-4-(3-oxopiperazine-1-carbonyl)cyclohexyl)-1H-indole-6-sulfonamide], the IC50 came out at 120 nM.

In the case of `O=C([C@H]1CC[C@H](NS(=O)(=O)c2ccc3cc(-c4ccc(F)cc4)[nH]c3c2)CC1)N1CCNC(C(F)(F)F)C1` (stereo partly drawn) [Example 348, 2-(4-fluorophenyl)-N-((1r,4r)-4-(3-(trifluoromethyl)piperazine-1-carbonyl)cydohexyl)-1H-indole-6-sulfonamide], the IC50 worked out at 45 nM.

Turning to `CCN(C)C(=O)[C@H]1CC[C@H](NS(=O)(=O)c2ccc3cc(-c4ccc(CO)cc4)n(C)c3c2)CC1` [Example 349, (1r,4r)-N-ethyl-4-(2-(4-(hydroxymethyl)phenyl)-1-methyl-1H-indole-6-sulfonamido)-N-methylcyclohexanecarboxamide], the IC50 was 100 nM.

On to `CC(C)n1c(-c2ccc(F)cc2)c(Cl)c2ccc(S(=O)(=O)N[C@H]3CC[C@H](C(=O)N4CCNC(C(F)(F)F)C4)CC3)cc21` (stereo partly drawn) [Example 350, 3-chloro-2-(4-fluorophenyl)-1-isopropyl-N-((1r,4r)-4-(3-(trifluoromethyl)piperazine-1-carbonyl)cyclohexyl)-1H-indole-6-sulfonamide], for which the IC50 worked out at 470 nM.

On to `COC(=O)[C@@H](NC(=O)[C@H]1CC[C@H](NS(=O)(=O)c2ccc3cc(-c4ccccc4)n(C)c3c2)CC1)c1ccccc1` [Example 351, (S)-methyl 2-((1r,4S)-4-(1-methyl-2-phenyl-1H-indole-6-sulfonamido)cyclohexanecarboxamido)-2-phenylacetate], for which the IC50 was 95 nM.

For `Cn1c(-c2ccccc2)cc2ccc(S(=O)(=O)N[C@H]3CC[C@H](C(=O)N[C@@H](c4ccccc4)C(C)(C)O)CC3)cc21` [Example 352, (1r,4S)-N-((S)-2-hydroxy-2-methyl-1-phenylpropy1)-4-(1-methyl-2-phenyl-1H-indole-6-sulfonamido)cyclohexanecarboxamide], the 50% inhibitory concentration (IC50) is below 10 nM.

As for `Cn1c(-c2ccccc2)cc2ccc(S(=O)(=O)N[C@H]3CC[C@H](C(=O)N[C@H](CO)c4ccccc4)CC3)cc21` [Example 353, (1r,4S)-N-((S)-2-hydroxy-1-phenylethyl)-4-(1-methyl-2-phenyl-1H-indole-6-sulfonamido)cyclohexanecarboxamide], the IC50 was below 10 nM.

On to `Cn1c(-c2ccccc2)cc2ccc(S(=O)(=O)N[C@H]3CC[C@H](C(=O)N4CC(=O)NC[C@@H]4c4ccccc4)CC3)cc21` [Example 354, 1-methyl-N-((1S,4r)-4-((S)-5-oxo-2-phenylpiperazine-1-carbonyl)cyclohexyl)-2-phenyl-1H-indole-6-sulfonamide], for which the IC50 is below 10 nM.

Regarding `Cn1c(C2CC2)cc2ccc(S(=O)(=O)N[C@H]3CC[C@H](C(=O)N[C@@H](c4ccccc4)C(C)(C)O)CC3)cc21` [Example 355, (1r,4S)-4-(2-cyclopropyl-1-methyl-1H-indole-6-sulfonamido)-N-((S)-2-hydroxy-2-methyl-1-phenylpropyl)cyclohexanecarboxamide], the IC50 was below 10 nM.

For the molecule `Cn1c(C2CC2)cc2ccc(S(=O)(=O)N[C@H]3CC[C@H](C(=O)N4CCNC(C(F)(F)F)C4)CC3)cc21` (stereo partly drawn) [Example 356, 2-cyclopropyl-1-methyl-N-((1r,4r)-4-(3-(trifluoromethyl)piperazine-1-carbonyl)cyclohexyl)-1H-indole-6-sulfonamide], the concentration for half-maximal inhibition (IC50) turned out to be 560 nM.

Take `COC(=O)CCc1ccc(-c2cc3ccc(S(=O)(=O)N[C@H]4CC[C@H](C(=O)N5CCCCC5)CC4)cc3n2C)cc1` [Example 357, methyl 3-(4-(1-methyl-6-(N-((1r,4r)-4-(piperidine-1-carbonyl)cyclohexyl)sulfamoyl)-1H-indol-2-yl)phenyl)propanoate]: the IC50 came to 120 nM.

For the molecule `O=C(O)CCc1ccc(-c2cc3ccc(S(=O)(=O)N[C@H]4CC[C@H](C(=O)N5CCCCC5)CC4)cc3[nH]2)cc1` [Example 358, 3-(4-(6-(N-((1r,4r)-4-(piperidine-1-carbonyl)cyclohexyl)sulfamoyl)-1H-indol-2-yl)phenyl)propanoic acid], the IC50 was 35 nM.

`Cn1c(-c2ccc(CCC(=O)O)cc2)cc2ccc(S(=O)(=O)N[C@H]3CC[C@H](C(=O)N4CCCCC4)CC3)cc21` [Example 359, 3-(4-(1-methyl-6-(N-((1r,4r)-4-(piperidine-1-carbonyl)cyclohexyl)sulfamoyl)-1H-indol-2-yl)phenyl)propanoic acid]: the IC50 worked out at 95 nM.

As to `COC(=O)CCc1ccc(-c2c(Cl)c3ccc(S(=O)(=O)N[C@H]4CC[C@H](C(=O)N5CCCCC5)CC4)cc3n2C)cc1` [Example 360, methyl 3-(4-(3-chloro-1-methyl-6-(N-((1r,4r)-4-(piperidine-1-carbonyl)cyclohexyl)sulfamoyl)-1H-indol-2-yl)phenyl)propanoate], the IC50 was found to be 35 nM.

For the molecule `Cn1c(-c2ccc(CCC(=O)O)cc2)c(Cl)c2ccc(S(=O)(=O)N[C@H]3CC[C@H](C(=O)N4CCCCC4)CC3)cc21` [Example 361, 3-(4-(3-chloro-1-methyl-6-(N-((1r,4r)-4-(piperidine-1-carbonyl)cyclohexyl)sulfamoyl)-1H-indol-2-yl)phenyl)propanoic acid], the IC50 came out at 10 nM.

For orientation: IC50 means the concentration that inhibits the measured activity by half.
